Literature values in patent publication US6767507B1, “Uncomplexed cyclodextrin compositions for odor control” (The Procter & Gamble Company, priority 1998, dated 2004).

Settings: not given
In the case of `ClC=CC[N+]12CN3CN(CN(C3)C1)C2.[Cl-]` [Dowicil 200, 1-(3-Chlorallyl)-3,5,7-triaza-1-azoniaadamantane chloride], the “solubility in water” value is given as “freely soluble in water”.

Same assay, conditions: in water
In the case of `OCCOc1ccccc1` [2-phenoxyethanol], the water solubility is listed as “about 2.67%”.
For `OCCc1ccccc1` [2-phenylethanol], the water solubility is given as “about 2%”.
For `O=[N+]([O-])C1(Br)COCOC1` [Bronidox L, 5-bromo-5-nitro-1,3-dioxane], the water solubility is given as “about 0.46%”.
In the case of `CC1(C)C(=O)N(CO)C(=O)N1CO` [DMDM hydantoin, 1,3-bis(hydroxymethyl)-5,5-dimethyl-2,4-imidazolidinedione], the water solubility is listed as “more than 50%”.
In the case of `OCc1ccccc1` [benzyl alcohol], the water solubility is given as “about 4%”.
In the case of `[H]/N=C(\N/C(=N/[H])NCCCCCCNC(=N)NC(=N)Nc1ccc(Cl)cc1)Nc1ccc(Cl)cc1` [chlorhexidine diacetate, 1,1′-hexamethylene bis(5-(p-chlorophenyl)biguanide), reference compound], the water solubility is given as “about 1.8%”.
In the case of `[H]/N=C(\N/C(=N/[H])NCCCCCCNC(=N)NC(=N)Nc1ccc(Cl)cc1)Nc1ccc(Cl)cc1` [chlorhexidine digluconate, 1,1′-hexamethylene bis(5-(p-chlorophenyl)biguanide), reference compound], the water solubility is given as “about 70%”.
For `CC(C)(O)C(Cl)(Cl)Cl` [chlorobutanol, 1,1,1-Trichloro-2-methylpropan-2-ol], the water solubility is listed as “about 0.8%”.
In the case of `[Na+].[O-][n+]1ccccc1[S-]` [sodium pyrithione], the water solubility is given as “about 50%”.
